In patent US20110039289A1, “FLUOROGENIC PEPTIDES AND THEIR METHOD OF PRODUCTION” (priority 2008, published 2011):

Experiments:
[1] = Fluorescence lifetime by time correlated single photon counting; conditions: 2-aminoacridone attached directly to the α-carboxylic acid group
Experimental: The fluorescence lifetimes of the synthesised peptides recorded above were measured by time correlated single photon counting. Peptides were dissolved in aqueous buffer solutions and excited at 405 nm using a pulsed solid state laser diode (Picoquant LDH-405). Fluorescent emission was filtered through a narrow bandpass interference filter (480/20 nm) and single photons were detected by a photomultiplier tube detector (Hamamatsu R7400P) and counted using a fast timing board with histogramming memory (Ortec 9353).

caspase 3 enzyme = molecular target: T1, caspase 3 enzyme (Homo sapiens, UniProt P42574); test: Cleavage of fluorogenic peptides by caspase 3 (Example 3, FIG. 1); format: biochemical; conditions: 1 mM Zn2+
T1 sequence (P42574 29-175 limits assumed): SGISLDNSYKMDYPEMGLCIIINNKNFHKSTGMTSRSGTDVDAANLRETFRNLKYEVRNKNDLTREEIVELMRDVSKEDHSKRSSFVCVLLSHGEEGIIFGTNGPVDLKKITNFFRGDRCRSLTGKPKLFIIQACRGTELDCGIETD
T1 sequence (P42574 176-277 limits assumed): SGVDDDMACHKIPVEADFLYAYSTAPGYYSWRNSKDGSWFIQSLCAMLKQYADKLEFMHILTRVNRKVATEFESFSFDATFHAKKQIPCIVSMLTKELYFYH
From the text: Caspase 3 cleaves WSDEVD-(2aa2) and WSDEVD-(2aa6) at the second aspartic acid residue.
PT14 peptide is WSDEVD-PT14, a conventionally labeled peptide, where PT14 is the Puretime 14 moiety. PT14 peptide is also known as peptide 10, but is not made in accordance with the method of the present invention. Puretime 14 is available from AssayMetrics Limited, Cardiff, UK.

Row | Molecule | fluorescence lifetime of adducts of 2-aminoacridone [1] [nanoseconds] | effect on the action of caspase 3 enzyme (caspase 3 enzyme)
1 | CC(=O)N[C@@H](Cc1ccc(O)cc1)C(=O)Nc1ccc2[nH]c3ccccc3c(=O)c2c1 | 9.4 | 
2 | zinc ions [reference compound] |  | inhibited the action of the enzyme
3 | CC(=O)N[C@@H](Cc1c[nH]c2ccccc12)C(=O)Nc1ccc2[nH]c3ccccc3c(=O)c2c1 | 3.0 | 
4 | CC(=O)N[C@@H](C)C(=O)Nc1ccc2[nH]c3ccccc3c(=O)c2c1 | 18.1 | 
